Source: patent publication US10912780B2, “Heterocyclic compounds useful as anti-bacterial agents and method for production thereof” (Bugworks Research, Inc., priority 2017, dated 2021)
Converted amounts (≈) assume the structure as drawn. “And” between values parts separate entries of the source, which are not always exact repeats. Equal entries are not always repeated.

What was measured:
[1] = test system: P. aeruginosa clinical strains; experiment: Antibacterial susceptibility studies (MIC50 and MIC90) with clinical strains, CLSI guidelines; format: cell-based
[2] = test system: A. baumannii clinical strains; experiment: as above; format: cell-based
[3] = test system: E. cloacae clinical strains; experiment: as above; format: cell-based
[4] = test system: P. aeruginosa [ATCC27853]; experiment: Neutropenic lung infection model in rat; format: in vivo; conditions: 30 mg/kg, i.v. bolus, neutropenic rat, 24 h post infection
Procedure: The purpose of this study was to evaluate the efficacy of example 15 against P. aeruginosa [ATCC27853], following single dose intravenous infusion doses of 10, 30 and 100 mg/kg in a neutropenic lung infection model in rats
Prior to the start of the infection process, all animals were divided into different groups. All grouped cages of animals were carried to a procedure room, close to a biological safety cabinet. All infections were conducted in a biological safety cabinet, with appropriate personnel protection. Animals were placed into an induction chamber and anaesthesia was induced by exposing the animals to 3-5% Isoflurane in an oxygen flow set at approximately (˜) 1 liter per minute (LPM). Once the animals were in a sufficiently deep plane of anaesthesia as monitored by pedal reflex, they were removed and infected (2). […] A gentle mixing of inoculum between two animals was followed for uniform distribution.
The IV formulation vehicle used for example 15 was 10% of L-ascorbic acid in fresh MilliQ water (w/v) with pH adjusted to ˜4.0 with 1N Sodium hydroxide solution (w/v), and the dose volume was 10 mL/kg. Meropenem was formulated in saline. […] The dose levels of the test Example 15 were 10, 30 and 100 mg/kg.
All the animals in groups were sacrificed at 24 h post infection, as specified in experimental design, by an overdose of CO2 in an appropriate exposure chamber. The group 1 animals were sacrificed at 4 hrs post infection. The euthanized animals were dipped into 70% ethanol for surface decontamination. Entire Lung was aseptically isolated, weighed and placed into 1 mL of sterile CSDB broth, and homogenized (Omni Tip (220 V hand held)). Serial ten-fold dilutions of the lungs homogenates were prepared in sterile CSD broth and 0.05 mL of four dilutions for each tissue was plated onto CSDA agar plates. Bacterial colonies were enumerated following overnight incubation at 37° C. Bacterial densities were estimated as Log10 CFU/g lung. The Mean±SD Log10 CFU/g lung was estimated in each group. Significant differences between group means and control were analyzed by one way ANOVA, followed by a Dunnett's multiple comparison test, using Graphpad Prism at 95% confidence levels.

E. coli clinical strains = experiment: Antibacterial susceptibility studies (MIC50 and MIC90) with clinical strains, CLSI guidelines; format: cell-based
[5] = test system: K. pneumoniae clinical strains; experiment: as above; format: cell-based
E. coli [ATCC25922] = experiment: Urinary tract infection (UTI) rat model; format: in vivo; conditions: 30 mg/kg, i.v. bolus, rat UTI, 24 h post infection
Procedure: The purpose of this study is to assess the efficacy of Example 15 against E. coli [ATCC25922] following single dose intravenous infusion doses of 3, 10 and 30 mg/kg in a Urinary Tract Infection Rat Model
Prior to the start of the infection process all animals were divided into different groups. All grouped cages of animals were carried to a procedure room, close to a biological safety cabinet. All infections were conducted in a biological safety cabinet, with appropriate personnel protection. Animals were anaesthetized by intraperitoneal injection of ketamine & xylazine (60+10 mg/kg i.p.) cocktail. Once the animals were in a sufficiently deep plane of anaesthesia as monitored by pedal reflex, the abdominal wall of each rat was shaved with electric clippers and the skin was cleansed with 10% povidine iodine. After a 1.5 to 2 cm lower abdominal wall incision, the abdominal wall muscles were separated with blunt dissection. […] After the replacement of the bladder to its original location, the abdominal muscles were approximated using suture and the skin was closed. The wounds were cleansed using 10% povidine iodine.
The IV formulation vehicle used was 10% of L-ascorbic acid in fresh MilliQ water (w/v) with pH adjusted to 4.0 with 1N Sodium hydroxide solution (w/v), and the dose volume was 10 mL/kg. Meropenem was prepared in MilliQ water and the pH of solution was adjusted to 4.5 using HCl. Four hours post infection, animals were dosed intravenously, as single doses (for test compounds), as a constant rate infusion, under Ketamine 60 mg/kg IP+Xylazine 10 mg/kg IP anesthesia, at a dose volume of 10 ml/kg, at the rate of 0.03 ml/min. The dose levels of the test compounds were 3, 10 and 30 mg/kg. Meropenem was administered as a single bolus dose at a dose volume of 5 ml/kg. All the animals were sacrificed at 24 h post infection, as specified in experimental design, by an overdose of CO2 in an appropriate exposure chamber. The group 1 animals were sacrificed at 4 h post infection.
The euthanized animals were dipped into 70% ethanol for surface decontamination. The organs were removed aseptically; the bladder was cut away near the urethra, and the kidneys were removed by blunt dissection to avoid bleeding. The bladder and each kidney separately were be homogenized in PBS. The CFU per milliliter homogenate of bladder, & kidney were determined after 18 to 24 h of incubation at 37° C.

[6] = Enterobacter cloacae, E. cloacae clinical strains (88 strains)

With C[C@@H](O)[C@H]1C(=O)N2C(C(=O)O)=C(S[C@@H]3CN[C@H](C(=O)N(C)C)C3)[C@H](C)[C@H]12 [Meropenem, reference compound] the MIC ATCC27853 ([1]; P. aeruginosa reference strain ATCC27853, no unit in this line) was 0.5 µg/mL (≈ 1.3 µM), the MIC50 ([1]; Pseudomonas aeruginosa) was 2 µg/mL (≈ 5.22 µM) and the MIC90 ([1]; Pseudomonas aeruginosa) was 8 µg/mL (≈ 20.9 µM). It also gave a Minimum ([1]; lowest MIC among P. aeruginosa clinical strains (215 strains; Example 15: 176), no unit in this line) of 0.03, an MIC ATCC19606 ([2]; A. baumannii reference strain ATCC19606, no unit in this line) of 0.5 µg/mL (≈ 1.3 µM) and an MIC50 ([2]; Acinetobacter baumannii) of 8 µg/mL (≈ 20.9 µM). The MIC90 ([2]; Acinetobacter baumannii) was 32 µg/mL (≈ 83.4 µM), the Minimum ([2]; lowest MIC among A. baumannii clinical strains (169 strains; Example 15: 132), no unit in this line) was 0.03125 and the MIC50 [3, 6] was 0.25 µg/mL (≈ 0.652 µM). For the same compound, the MIC90 [3, 6] was 16 µg/mL (≈ 41.7 µM), the Minimum ([3]; lowest MIC among E. cloacae clinical strains (88 strains), no unit in this line) was 0.06 and the “MEAN ± SD (Log 10 CFU/g Lung)” value [4] was 5.04 ± 0.14 Log 10 CFU/g Lung. The “Mean Log 10CFU/g lung reduction (wrt 4 h PI control 5.78 Log10CFU/g lung)” value [4] was 0.74 Log10CFU/g lung, the “Log 10 CFU/g Lung” value ([4]; individual animals) was 5.03 Log 10 CFU/g Lung and 5.18 Log 10 CFU/g Lung and 4.90 Log 10 CFU/g Lung and the MIC ATCC25922 (E. coli clinical strains; E. coli reference strain ATCC25922, no unit in this line (MIC50/MIC90 lines: μg/ml)) was 0.06 µg/mL (≈ 0.156 µM). The MIC50 (E. coli clinical strains; Escherichia coli) was 0.06 µg/mL (≈ 0.156 µM), the MIC90 (E. coli clinical strains; Escherichia coli) was 4 µg/mL (≈ 10.4 µM) and the Minimum (E. coli clinical strains; lowest MIC among E. coli clinical strains (201 strains; Example 15: 176), no unit in this line) was 0.03. It also gave an MIC ATCC13883 ([5]; K. pneumoniae reference strain ATCC13883, no unit in this line) of 0.06 µg/mL (≈ 0.156 µM), an MIC50 ([5]; Klebsiella pneumoniae) of 1 µg/mL (≈ 2.61 µM) and an MIC90 ([5]; Klebsiella pneumoniae) of 16 µg/mL (≈ 41.7 µM). The Minimum ([5]; lowest MIC among K. pneumoniae clinical strains (211 strains; Example 15: 176), no unit in this line) was 0.03, the “MEAN ± SD (Log10 CFU/g kidneys)” value (E. coli [ATCC25922]) was 4.41 ± 0.70 Log10 CFU/g kidneys and the “Mean Log10 CFU/g kidney reduction (wrt 4 h PI control: 6.03 Log10 CFU/g kidneys)” value (E. coli [ATCC25922]) was 1.62 Log10 CFU/g kidneys. For the same compound, the “MEAN ± SD (Log 10 CFU/ml Bladder)” value (E. coli [ATCC25922]; bladder) was 4.34 ± 0.32 Log 10 CFU/ml, the “Mean Log10 CFU/ml Bladder reduction (wrt 4 h PI control: 6.49 CFU/ml Bladder)” value (E. coli [ATCC25922]; bladder) was 2.15 Log10 CFU/ml and the “Log10 CFU/g (Left Kidney)” value (E. coli [ATCC25922]; individual animals) was 4.62 Log10 CFU/g and 4.41 Log10 CFU/g and 5.19 Log10 CFU/g. The “Log10 CFU/g (Right Kidney)” value (E. coli [ATCC25922]; individual animals) was 4.83 Log10 CFU/g and 3.13 Log10 CFU/g and 4.28 Log10 CFU/g and the “Log 10 CFU/ml Bladder” value (E. coli [ATCC25922]; individual animals, bladder) was 4.43 Log 10 CFU/ml and 4.62 Log 10 CFU/ml and 3.99 Log 10 CFU/ml.
